Patent US20240133884A1, “COMPOSITIONS AND METHODS FOR DETECTING TRYPANOSOMA CRUZI INFECTION” (University of Georgia Research Foundation, Inc., priority 2022, published 2024)
Entries after “also recorded” stand apart in the source; their conditions may differ.

Tests used:
[1] = system: T. cruzi (CL strain); experiment: Rapid in vivo assay: mouse footpad infection with tdTomato-expressing T. cruzi, single oral dose; set-up: species or system Trypanosoma cruzi; conditions: mice, reduced doses (FIG. 1B)
Description: Fluorescent intensity of the feet was measured at 2 dpi before compound administration and at 4 dpi in the Maestro in vivo imaging system equipped with the software Maestro 2.1.0 (CRi) as previously described (Fleau, et al., J Med Chem 62, 10362-10375 (2019)). The proliferation index was estimated as PI=[(T4d−T2d)/(mUnt4d−mUnt2d)]*100; where T4d and T2d are the fluorescence intensity of the feet of the treated animals at days 4 and 2 post-infection respectively; mUnt4d and mUnt2d are the average fluorescence intensity of the feet of the untreated animals at 4 and 2 dpi respectively.

[2] = system: T. cruzi mRNA; experiment: RNA-Seq of infected Vero cells: parasite mRNA relative to host cell mRNA; format: cell-based, Trypanosoma cruzi; conditions: as early as 6 hrs after addition (FIG. 5C)
Description: Vero cells (10^6) were infected with 10^7 CL strain trypomastigotes of T. cruzi for 2 days before treating with either 5 uM benznidazole or 30 nM AN14353. The drug concentration used for treatment was set at 5 times the IC50. Samples were collected at several time points for RNA extraction as previously described (Minning, et al., BMC genomics 10, 370 (2009)). rRNA-depleted RNA library construction and RNA sequencing using Illumina Nextseq 75PE was carried out by Georgia Genomics and Bioinformatics Core (GGBC, University of Georgia, Georgia). Illumina reads with mean quality lower than 30 (Phred Score based) were removed from analysis, then mapped to CL Brener genome (TritrypDB release-33) and African green monkey genome (Osada, et al., DNA Res 21, 673-683 (2014)) using the HiSAT software package v0.1.6^50 with default parameters. The mapping rate was quantified by HTseq v0.6.1 (Anders, et al., Bioinformatics 31, 166-169 (2015)).

[3] = system: anti-T. cruzi antibodies; experiment: Luminex-based multiplex serological analysis in macaques; format: in vivo, rhesus macaque (Macaca mulatta); conditions: treated macaques, over 42 months after end of treatment
From the text: For a number of smaller proteins, fusions of up to 2 individual genes are employed for some target proteins in order to expand the array of antibodies being detected while controlling costs and complexity of the assay. (TritrypDb.org identifiers: Tc1=fusion of TcBrA4_0116860 and TcYC6_0028190; Tc2=fusion of TcBrA4_0088420 and TcBrA4_0101960; Tc3=fusion of TcBrA4_0104680 and TcBrA4_0101980; Tc4=fusion of TcBrA4_0028480 and TcBrA4_0088260; Tc5=fusion of TcYC6_0100010 and TcBrA4_0074300; Tc7=fusion of TcYC6_0083710 and TcBrA4_0130080; Tc8=TcYC6_0037170; Tc11=TcYC6_0124160; Tc17=fusion of TcBrA4_0028230 and TcBrA4_0029760; Kn107=TcCLB.508355.250; G10=TcCLB.504199.20). Macaque antibody binding to individual beads in the Multiplex assays was detected with donkey anti-human IgG (H+L) conjugated to phycoerythrin (Jackson ImmunoResearch) in a 1:200 dilution.

[4] = system: T. cruzi
Description: A total of 22 rhesus macaques that had been confirmed to be serologically- and PCR-positive for T. cruzi were utilized in these studies. Using 19 animals in the treatment group provided 85% power of detecting 100% efficacy. The 19 animals were treated with a 30 mg/kg dose of AN15368 delivered in food treats once a day for 60 days. The remaining three animals on the study were maintained as untreated control animals and received food treats but were not dosed with AN15368.
The selected dose of 30 mg/kg in NHP was determined based upon the following rationale. […] Under light-anesthesia/sedation, peripheral blood samples were collected from each animal prior to treatment and at 7 time points following. Blood analysis (CBC and serum chemistry assays) and physical exams to evaluate the health of the study animals were performed on each animal prior to the beginning of the study and also at three time points during the treatment protocol.
Blood samples from each macaque were collected at various time points and processed for quantification of T. cruzi DNA by real-time qPCR. Between 8-ml of whole blood collected in EDTA anticoagulant tubes was subjected to DNA extraction using the Omega E.Z.N.A. Blood DNA Maxi Kit (Omega Bio-Tek), following the manufacturer's instructions for up to 10 ml whole blood and using a total of 650 μl of elution buffer. Each round of extractions included a negative (no-template) control comprised of 10 ml PBS. The concentration of DNA in the eluted solution was quantified after each extraction using an Epoch microplate spectrophotometer (BioTek).
DNA from each sample was then subjected to a series of two qPCR assays for detection of T. cruzi satellite DNA. […] Positive (DNA extracted from T. cruzi Sylvio X10 clone 4, American Type Culture Collection, ATCC #50800, known concentration 1.7×10^−3 parasite equivalents) and negative (water) controls were included in each PCR plate for both assays. C1000 Touch Bio-Rad CFX96 real-time PCR detection system was used for both assays under the following cycling conditions: (i) initial denaturation, 95°, 3 min; (ii) denaturation, 95° C., 15 s; (iii) annealing, 58° C., 1 min; (iv)×50 cycles. FAM and VIC channels were selected for each read.
Frozen tissues were screened for T. cruzi DNA using 8 mm biopsies (Sklar instruments #96-1130), collecting 3 to 10 individual ˜100 μl tissue punches for each tissue type and one of more pooled sample consisting of five punches from different areas of the tissue, totaling ˜500 μl per pool. The tissues sampled included liver, heart, fat, esophagus, quadricep, bicep, large intestine, and brain, as well as tongue and spleen in a few instances. Two individual and one pooled sample of tissues from an uninfected macaque was collected for each sampling batch. DNA from macaque tissue was extracted and analyzed as previously described (Bustamante, et al., Sci Transl Med 12 (2020)) with the exceptions that the purification was scaled up to accommodate the larger amount of tissue in the pooled samples and the range for the standards was 2.6×10^2-2.6×10^−3 parasite equivalents using the kDNA minicircle S35 and S36 primers.

[5] = macaques, 30 mg/kg once a day for 60 days, post-treatment time points, 30 mg/kg

Structure (SMILES) | reduction of established focal footpad infection by a single oral dose [1] | parasite mRNA in T. cruzi-infected host cells [2] | antibody levels to recombinant T. cruzi proteins [3] | T. cruzi DNA by PCR in post-necropsy tissues ([4]; 9 treated macaques, 84-99 sample sites/animal) | overall safety / toxicity ([4]; 60 day course of treatment in NHPs) | adverse events ([4]; in vivo) | mean ALT and ALP, levels of lymphocytes and monocytes in blood ([4]; in vivo) | cure of chronically infected rhesus macaques ([4]; in words (FIGS. 4A-4K)) | culture of parasites from blood (hemoculture) [4, 5] | parasite DNA in blood (PCR) [4, 5] | efficacy / cure ([4]; naturally infected NHPs, 30 mg/kg, 60 days) [%]
Cc1c(C(=O)N[C@H](C(=O)OCc2ccc(F)c(F)c2)C(C)C)ccc2c1B(O)OC2 [AN14353] | activity at reduced doses | marked and continuing reduction in parasite mRNA |  |  |  |  |  |  |  |  | 
Cc1c(C(=O)N[C@H](C(=O)OCC2CCOCC2)C(C)C)ccc2c1B(O)OC2 [AN15368] |  |  | declines in antibody levels | negative | no overt safety or reproductive health concerns; also recorded: no overt toxicity | No adverse events | mildly elevated | uniformly cures chronically infected rhesus macaques | remained negative | remained negative | 100
